# From patent US10845369B2, “Sampling devices and methods of use” (3M INNOVATIVE PROPERTIES COMPANY, priority 2008, dated 2020)
# Experiments:
# [1] = Moisture retention by premoistened swab devices during extended storage; type: physicochemical
# Text: Rapid Cleanliness Test swab sampling devices, sold under the trade name CLEAN-TRACE, were obtained from 3M Health Care (Bridgend, UK). Sterile Dacron swabs were obtained from Puritan Medical Products Company (Guilford, Me.). Foil pouches (160 mm (w)×270 mm (1) heat-sealable PET/foil/LDPE laminate pouches) were obtained from Westfield Medical Ltd. (Bath, UK). The analytical balance (model GR-300) was obtained from A&D Mercury Pty., (Thebarton, South Australia)
# The swabs were removed from the CLEAN-TRACE devices and replaced with dry, sterile Dacron swabs. Half of the replacement swabs were dipped in solution I (see Table 1) for 20 seconds, tapped on the edge of a sterilin container 5 times (to remove excess swabbing solution), and the swabs were weighed before each CLEAN-TRACE tube was reassembled with a moistened swab. The remaining replacement swabs were similarly moistened with solution II (Table 1), weighed, and reassembled in the tubes.
# The initial weight (T0) of each moistened swab was recorded. The reassembled tubes were placed into individual plastic pouches, which were heat-sealed. Care was taken to minimize the amount of air sealed in each pouch. The pouches were divided into two groups. One group was placed into a refrigerator which was held at a temperature of 4±3 degrees Celsius. The other group was placed into a chamber which was held at 25±1 degree Celsius. Sets of ten replicate tubes were removed from each chamber at each specified time point, the tubes were removed from the pouch and weighed, and the weights were recorded.
# (§1) Swabs were prepared as described in Example 1. The swabs were tested for moisture retention as described in Example 1, for compatibility with luciferase enzyme as described in Example 3, and for perdurable detectable residue as described in Example 4. In these experiments, the swab effectiveness parameter was not recorded. All concentrations are listed as percent weight/volume. Solution I-moistened swabs were used as controls for all comparisons. Inhibition of luciferase activity was scored as significant when the measurement from the test swab was <90% of the activity observed with the control swabs. The inhibition was scored as very significant when the measurement from the test swab was <50% of the activity observed with the control swabs.
# luciferase enzyme = assay: ATP detection activity test in CLEAN-TRACE devices (compatibility with luciferase enzyme); type: biochemical
# Text: The swabs were removed from the CLEAN-TRACE devices and replaced with dry, sterile Dacron swabs. One-third of the replacement swabs were dipped in solution I (see Table 1) for 20 seconds, tapped on the edge of a sterilin container 5 times (to remove excess swabbing solution), and the CLEAN-TRACE tube was reassembled with the moistened swab. One-third of the remaining replacement swabs were similarly moistened with solution II (Table 1) containing 2% (w/v) 1,2-propanediol and reassembled in the tubes. The remaining one-third were similarly moistened with solution II (Table 1) containing 5% (w/v) 1,2-propanediol and reassembled in the tubes. The reassembled devices were sealed in pouches containing 10 devices per pouch and stored at 4 degrees Celsius for 24 hours.
# An ATP stock solution was prepared by reconstituting freeze-dried ATP with 500 microliters of autoclaved R.O. water to a working strength of […]. A 10-microliter aliquot of the ATP working solution was pipetted onto the middle of the bud of the test devices prepared for this Example (see above).
# Individual devices were activated by plunging the handle of the swab into the test devices, thereby breaking the barrier and exposing the swab bud to the reagent solution containing luciferin. The tubes were then shaken for 20 seconds at speed 7 on the wrist action shaker (Stuart Scientific, Staffordshire, England) and the device was read device in a UNI-LITE luminometer (3M Healthcare, Bridgend, U.K.). Twenty replicate swabs were tested at each time point for each swab solution. Background readings (negative controls) were run at each time point by activating devices, containing one of the Solutions (I, IIa, or IIb), which was not spiked with the ATP solution. Ten devices were used for each negative control condition at each time point.
# as §1
# [2] = 5% w/v in Solution II, vs Solution I control
# [3] = 5% w/v, vs Solution I control swabs
# [4] = 1% w/v in Solution II, vs Solution I control
smiles,measurement,setting,value
OCC(O)CO [Glycerol],Moisture retention,"[1]; 1, 5% tested",Comparable to sorbitol and propylene glycol
same,Moisture retention,"[1]; 10, 20, 50% tested",Comparable to sorbitol and propylene glycol
same,Compatibility with luciferase enzyme,"luciferase enzyme; up to 5% (1, 5% tested)",No inhibition up to 5%
"CC(=O)NCCO [Incromectant (N-Acetylethanolamine), N-Acetylethanolamine]",Moisture retention,[1]; [2],5% solution was comparable to PG
same,Compatibility with luciferase enzyme,luciferase enzyme; [3],Some inhibition at 5%
"CC(O)CO (centres unmarked) [Propylene glycol (1,2-propanediol), 1,2-propanediol]",Moisture retention,[1]; [4],No significant improvement
same,Moisture retention,"[1]; ≥5% (5, 6, 8% tested)",Significant improvement ≥5%
same,Moisture retention,"[1]; ≥5% (10. 20, 25, 50% tested)",Significant improvement ≥5%
same,Compatibility with luciferase enzyme,"luciferase enzyme; 1, 2, 3, 4% tested",No inhibition
same,Compatibility with luciferase enzyme,"luciferase enzyme; 5, 6, 8% tested",No inhibition
CC(O)C(=O)[O-].[Na+] (centres unmarked) [Sodium lactate],Moisture retention,[1]; 5 or 10% soln.,No significant improvement with 5 or 10%
same,Compatibility with luciferase enzyme,luciferase enzyme; [3],Significant inhibition
OC[C@@H](O)[C@@H](O)[C@H](O)[C@@H](O)CO [Sorbitol],Moisture retention,[1]; [4],No significant improvement with 1%.
same,Moisture retention,[1]; [2],Slight improvement with 5%.
same,Moisture retention,"[1]; ≥10% (10, 20, 30, 40, 50, 100% tested)",Significant improvement with ≥10%
same,Compatibility with luciferase enzyme,"luciferase enzyme; 1% w/v, vs Solution I control swabs",No inhibition
same,Compatibility with luciferase enzyme,luciferase enzyme; [3],No inhibition
